Tests used:
Trifolium repens = assay: Weed spectrum, greenhouse pot test; format: in vivo; conditions: two weeks after application
Description: (§1) To a rectangular plastic pot (surface area of 300 cm^2) in which sandy loam and mixed top soil (Boo-Nong Top Soil No. 3, for horticultural use) are filled in 1:1 ratio, eight different kinds of weed seeds including Poa annua and Digitaria sanguinalis as poaceae weed, Cyperus amuricus as cyperaceae weeds and Trifolium repens, Kummerowia striata, fleabane, Veronica officinalis and Portulaca oleracea as broadleaf weeds were sewn (50 to 100 seeds per each weed). These weeds are representative examples of the weeds which typically thrive in a turf grass field.
(§2) The pot was kept in a greenhouse which was maintained at 25˜30° C. for daytime and 15˜25° C. for nighttime, respectively, and irrigation was carried out regularly. Fourteen days after seeding, when the turf grass and the weeds reached approximately at three-leaf stage, the weed seeds were again sewn in separate two pots or “Test chemical” and “Control chemical” were applied in the same manner as the method described above. In this regard, when plants were cultivated for two weeks and then the chemical application was carried out, it is designated as “post-emergence” treatment. On the other than, when the seeding was carried right before the chemical application, it is designated as “pre-emergence” treatment. Preparation of a chemical solution, application method, etc. are the same as above described for evaluation of turf grass selectivity. Two weeks after the chemical application, efficacy of the chemicals for each type of the weeds was evaluated (visual evaluation) based on 0 to 100 scale (i.e., 0 indicates no efficacy and 100 indicates complete weed control).

Kummerowia striata = assay: Weed spectrum, greenhouse pot test; format: in vivo; conditions: two weeks after application
Description: as §1, §2

Veronica officinalis = assay: Weed spectrum, greenhouse pot test; format: in vivo; conditions: two weeks after application
Description: as §1, §2

Portulaca oleracea = assay: Weed spectrum, greenhouse pot test; format: in vivo; conditions: two weeks after application
Description: as §1, §2

Poa annua = assay: Weed spectrum, greenhouse pot test; format: in vivo; conditions: two weeks after application
Description: as §1, §2

Digitaria sanguinalis = assay: Weed spectrum, greenhouse pot test; format: in vivo; conditions: two weeks after application
Description: as §1, §2

Cyperus amuricus = assay: Weed spectrum, greenhouse pot test; format: in vivo; conditions: two weeks after application
Description: as §1, §2

Zoysia japonica = assay: Turf grass selectivity, greenhouse pot test; format: in vivo; conditions: Zoysia japonica
Description: (§3) Turf mats of Zoysia grass, bentgrass, Kentucky bluegrass, or perennial rye grass known as cool season turfgrass or western grass were purchased and cut into a piece having 10 cm×20 cm size. Then, each piece was transplanted in a rectangular plastic pot (surface area of 300 cm^2) in which sandy loam and mixed top soil (Boo-Nong Top Soil No. 3, for horticultural use) are filled in 1:1 ratio. After the transplantation, the grasses were cut once a week to maintain the blade height at 0.5-1.0 cm and cultivated for one month in a green house of which temperature was kept at 25˜30° C. for daytime and 15˜25° C. for nighttime, respectively. Then, the ‘test chemical’ of the above Examples 1 and 2 or ‘control chemical’ was applied thereto in an amount of 400, 200, 100, 50, 25, 12, 6, 3 g ai/ha. As a “control chemical”, pyrazolsulfuron ethyl wettable agent (manufactured by Dongbu Fine Chemicals; herein after, referred to as ‘control chemical No. 1’) and flazasulfuron (manufactured by Dongbu HiTek; herein after, referred to as ‘control chemical No. 2’), both sulfonylurea herbicides for a turf grass, were used. Application was carried out by using a track sprayer (R&D Sprayer, USA) equipped with Teejet 8002 nozzle (Spraying Systems Co., USA), and the application amount was adjusted to 2,000 L/ha, which is a typical application amount for a golf course in Korea. Application solution was prepared by diluting the “test chemical” or the “control chemical” with tap water. […] The test was repeated three times in a random arrangement and the results are given in average value of each test (see Table 2 below).

Kentucky bluegrass = assay: Turf grass selectivity, greenhouse pot test; format: in vivo, Poa pratensis
Description: as §3

Compound: CCOC(=O)c1cnn(C)c1S(=O)(=O)NC(=O)Nc1nc(OC)cc(OC)n1 [Control chemical No. 1, Pyrazosulfuron ethyl, reference compound]
- efficacy (0-100 scale) (Trifolium repens; Post-emergence, 12 g ai/ha): 20
- efficacy (0-100 scale) (Trifolium repens; Post-emergence, 25 g ai/ha): 60
- efficacy (0-100 scale) (Trifolium repens; Post-emergence, 50 g ai/ha): 70
- efficacy (0-100 scale) (Trifolium repens; Post-emergence, 100 g ai/ha): 80
- efficacy (0-100 scale) (Trifolium repens; Pre-emergence, 12 g ai/ha): 40
- efficacy (0-100 scale) (Trifolium repens; Pre-emergence, 25 g ai/ha): 60
- efficacy (0-100 scale) (Trifolium repens; Pre-emergence, 50 g ai/ha): 70
- efficacy (0-100 scale) (Trifolium repens; Pre-emergence, 100 g ai/ha): 70
- efficacy (0-100 scale) (Kummerowia striata; Post-emergence, 12 g ai/ha): 0
- efficacy (0-100 scale) (Kummerowia striata; Post-emergence, 25 g ai/ha): 30
- efficacy (0-100 scale) (Kummerowia striata; Post-emergence, 50 g ai/ha): 40
- efficacy (0-100 scale) (Kummerowia striata; Post-emergence, 100 g ai/ha): 50
- efficacy (0-100 scale) (Kummerowia striata; Pre-emergence, 12 g ai/ha): 30
- efficacy (0-100 scale) (Kummerowia striata; Pre-emergence, 25 g ai/ha): 50
- efficacy (0-100 scale) (Kummerowia striata; Pre-emergence, 50 g ai/ha): 50
- efficacy (0-100 scale) (Kummerowia striata; Pre-emergence, 100 g ai/ha): 70
- efficacy (0-100 scale) (Veronica officinalis; Post-emergence, 12 g ai/ha): 10
- efficacy (0-100 scale) (Veronica officinalis; Post-emergence, 25 g ai/ha): 20
- efficacy (0-100 scale) (Veronica officinalis; Post-emergence, 50 g ai/ha): 30
- efficacy (0-100 scale) (Veronica officinalis; Post-emergence, 100 g ai/ha): 30
- efficacy (0-100 scale) (Veronica officinalis; Pre-emergence, 12 g ai/ha): 0
- efficacy (0-100 scale) (Veronica officinalis; Pre-emergence, 25 g ai/ha): 20
- efficacy (0-100 scale) (Veronica officinalis; Pre-emergence, 50 g ai/ha): 30
- efficacy (0-100 scale) (Veronica officinalis; Pre-emergence, 100 g ai/ha): 40
- efficacy (0-100 scale) (Portulaca oleracea; Post-emergence, 12 g ai/ha): 20
- efficacy (0-100 scale) (Portulaca oleracea; Post-emergence, 25 g ai/ha): 40
- efficacy (0-100 scale) (Portulaca oleracea; Post-emergence, 50 g ai/ha): 60
- efficacy (0-100 scale) (Portulaca oleracea; Post-emergence, 100 g ai/ha): 80
- efficacy (0-100 scale) (Portulaca oleracea; Pre-emergence, 12 g ai/ha): 20
- efficacy (0-100 scale) (Portulaca oleracea; Pre-emergence, 25 g ai/ha): 30
- efficacy (0-100 scale) (Portulaca oleracea; Pre-emergence, 50 g ai/ha): 70
- efficacy (0-100 scale) (Portulaca oleracea; Pre-emergence, 100 g ai/ha): 100
- efficacy (0-100 scale) (Poa annua; Post-emergence, 12 g ai/ha): 0
- efficacy (0-100 scale) (Poa annua; Post-emergence, 25 g ai/ha): 0
- efficacy (0-100 scale) (Poa annua; Post-emergence, 50 g ai/ha): 0
- efficacy (0-100 scale) (Poa annua; Post-emergence, 100 g ai/ha): 10
- efficacy (0-100 scale) (Poa annua; Pre-emergence, 12 g ai/ha): 0
- efficacy (0-100 scale) (Poa annua; Pre-emergence, 25 g ai/ha): 10
- efficacy (0-100 scale) (Poa annua; Pre-emergence, 50 g ai/ha): 20
- efficacy (0-100 scale) (Poa annua; Pre-emergence, 100 g ai/ha): 20
- efficacy (0-100 scale) (Digitaria sanguinalis; Post-emergence, 12 g ai/ha): 0
- efficacy (0-100 scale) (Digitaria sanguinalis; Post-emergence, 25 g ai/ha): 0
- efficacy (0-100 scale) (Digitaria sanguinalis; Post-emergence, 50 g ai/ha): 0
- efficacy (0-100 scale) (Digitaria sanguinalis; Post-emergence, 100 g ai/ha): 10
- efficacy (0-100 scale) (Digitaria sanguinalis; Pre-emergence, 12 g ai/ha): 0
- efficacy (0-100 scale) (Digitaria sanguinalis; Pre-emergence, 25 g ai/ha): 10
- efficacy (0-100 scale) (Digitaria sanguinalis; Pre-emergence, 50 g ai/ha): 30
- efficacy (0-100 scale) (Digitaria sanguinalis; Pre-emergence, 100 g ai/ha): 50
- efficacy (0-100 scale) (Cyperus amuricus; Post-emergence, 12 g ai/ha): 50
- efficacy (0-100 scale) (Cyperus amuricus; Post-emergence, 25 g ai/ha): 70
- efficacy (0-100 scale) (Cyperus amuricus; Post-emergence, 50 g ai/ha): 80
- efficacy (0-100 scale) (Cyperus amuricus; Post-emergence, 100 g ai/ha): 100
- efficacy (0-100 scale) (Cyperus amuricus; Pre-emergence, 12 g ai/ha): 70
- efficacy (0-100 scale) (Cyperus amuricus; Pre-emergence, 25 g ai/ha): 80
- efficacy (0-100 scale) (Cyperus amuricus; Pre-emergence, 50 g ai/ha): 100
- efficacy (0-100 scale) (Cyperus amuricus; Pre-emergence, 100 g ai/ha): 100
- phytotoxicity (visual assessment 0-10) (Zoysia japonica; 3 g ai/ha, 2 weeks): 0
- phytotoxicity (visual assessment 0-10) (Zoysia japonica; 3 g ai/ha, 4 weeks): 0
- phytotoxicity (visual assessment 0-10) (Zoysia japonica; 6 g ai/ha, 2 weeks): 0
- phytotoxicity (visual assessment 0-10) (Zoysia japonica; 6 g ai/ha, 4 weeks): 0
- phytotoxicity (visual assessment 0-10) (Zoysia japonica; 12 g ai/ha, 2 weeks): 0
- phytotoxicity (visual assessment 0-10) (Zoysia japonica; 12 g ai/ha, 4 weeks): 0
- phytotoxicity (visual assessment 0-10) (Zoysia japonica; 25 g ai/ha, 2 weeks): 0
- phytotoxicity (visual assessment 0-10) (Zoysia japonica; 25 g ai/ha, 4 weeks): 0
- phytotoxicity (visual assessment 0-10) (Zoysia japonica; 50 g ai/ha, 2 weeks): 0
- phytotoxicity (visual assessment 0-10) (Zoysia japonica; 50 g ai/ha, 4 weeks): 0
- phytotoxicity (visual assessment 0-10) (Zoysia japonica; 100 g ai/ha, 2 weeks): 0
- phytotoxicity (visual assessment 0-10) (Zoysia japonica; 100 g ai/ha, 4 weeks): 0
- phytotoxicity (visual assessment 0-10) (Zoysia japonica; 200 g ai/ha, 2 weeks): 0
- phytotoxicity (visual assessment 0-10) (Zoysia japonica; 200 g ai/ha, 4 weeks): 0
- phytotoxicity (visual assessment 0-10) (Zoysia japonica; 400 g ai/ha, 2 weeks): 0
- phytotoxicity (visual assessment 0-10) (Zoysia japonica; 400 g ai/ha, 4 weeks): 0
- phytotoxicity (visual assessment 0-10) (Kentucky bluegrass; 3 g ai/ha, 2 weeks): 0
- phytotoxicity (visual assessment 0-10) (Kentucky bluegrass; 3 g ai/ha, 4 weeks): 0
- phytotoxicity (visual assessment 0-10) (Kentucky bluegrass; 6 g ai/ha, 2 weeks): 0
- phytotoxicity (visual assessment 0-10) (Kentucky bluegrass; 6 g ai/ha, 4 weeks): 0
- phytotoxicity (visual assessment 0-10) (Kentucky bluegrass; 12 g ai/ha, 2 weeks): 0
- phytotoxicity (visual assessment 0-10) (Kentucky bluegrass; 12 g ai/ha, 4 weeks): 0
- phytotoxicity (visual assessment 0-10) (Kentucky bluegrass; 25 g ai/ha, 2 weeks): 0
- phytotoxicity (visual assessment 0-10) (Kentucky bluegrass; 25 g ai/ha, 4 weeks): 0
- phytotoxicity (visual assessment 0-10) (Kentucky bluegrass; 50 g ai/ha, 2 weeks): 0
- phytotoxicity (visual assessment 0-10) (Kentucky bluegrass; 50 g ai/ha, 4 weeks): 0
- phytotoxicity (visual assessment 0-10) (Kentucky bluegrass; 100 g ai/ha, 2 weeks): 0
- phytotoxicity (visual assessment 0-10) (Kentucky bluegrass; 100 g ai/ha, 4 weeks): 0
- phytotoxicity (visual assessment 0-10) (Kentucky bluegrass; 200 g ai/ha, 2 weeks): 1
- phytotoxicity (visual assessment 0-10) (Kentucky bluegrass; 200 g ai/ha, 4 weeks): 0
- phytotoxicity (visual assessment 0-10) (Kentucky bluegrass; 400 g ai/ha, 2 weeks): 2
- phytotoxicity (visual assessment 0-10) (Kentucky bluegrass; 400 g ai/ha, 4 weeks): 1
